From patent publication US7592332B2, “Cytokine inhibitors” (Boehringer Ingelheim Pharmaceuticals, Inc., priority 2004, dated 2009)
Counter-ions that a name gives are not always drawn.

Compound	melting point
COc1cnc(C(C)(C)C)cc1NC(=O)c1cc2cccc(Oc3ccnc(N4CCN(C)CC4)n3)c2n1C (as salt: salt) [Example 2, 1-methyl-7-[2-(4-methyl-piperazin-1-yl)-pyrimidin-4-yloxy]-1H-indole-2-carboxylic acid (2-tert-butyl-5-methoxy-pyridin-4-yl)-amide]	72 to 74 °C (dec.)
Cn1c(C(=O)Nc2cc(C(C)(C)C)c[nH]c2=O)cc2cccc(Oc3ccncc3)c21 [Example 5, 1-methyl-7-(pyridine-4-yloxy)-1H-indole-2-carboxylic acid (5-tert-butyl-2-oxo-1,2-dihydropyridin-3-yl)-amide]	236 to 238 °C (dec.)
Cn1cc(C(C)(C)C)cc(NC(=O)c2cc3cccc(Oc4ccncc4)c3n2C)c1=O [Example 6, 1-methyl-7-(pyridine-4-yloxy)-1H-indole-2-carboxylic acid (5-tert-butyl-1-methyl-2-oxo-1,2-dihydropyridin-3-yl)-amide]	74 to 76 °C (dec.)
Cc1ncc(C(C)(C)C)cc1NC(=O)c1cc2cccc(Oc3ccncc3)c2n1C [Example 7, 1-methyl-7-(pyridine-4-yloxy)-1H-indole-2-carboxylic acid (5-tert-butyl-2-methyl-pyridin-3-yl)-amide]	52 to 56 °C (dec.)

Results, then the compound that gave them:

melting point	Compound
88 to 92 °C (dec.)	Cn1c(C(=O)Nc2cc(C(C)(C)C)ccc2[S+](C)[O-])cc2cccc(Oc3ccncc3)c21 (stereo not drawn) [Example 3, 1-methyl-7-(pyridine-4-yloxy)-1H-indole-2-carboxylic acid (5-tert-butyl-2-methanesulfinyl-phenyl)-amide]
158 to 159 °C (dec.)	Cn1c(C(=O)Nc2cc(C(C)(C)C)ccc2S(C)(=O)=O)cc2cccc(Oc3ccncc3)c21 [Example 4, 1-methyl-7-(pyridine-4-yloxy)-1H-indole-2-carboxylic acid (5-tert-butyl-2-methanesulfonyl-phenyl)-amide]
